Results as given in US6204293A, “Inhibitors of protein isoprenyl transferases” (University of Pittsburgh, priority 1998, dated 2001).
Structures can show the parent of a compound that is named as a salt. Where two headings read alike, the source gives them in different places.

Biological target: T1, Rat brain protein farnesyltransferase (Rattus norvegicus, UniProt Q02293+Q04631)
T1 construct: Rat brain protein farnesyltransferase activity is measured; from tissue; host or cells: rat brain
Assay: % inhibition of farnesylation, scintillation proximity assay with biotin-K Ras B fragment
Assay type: biochemical
Conditions: for inhibition at 1 µM: read-out: % inhibition at 1 × 10^-6 M
Summary of the method: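 Rat brain enzyme, purified through three steps, in a scintillation proximity assay kit with biotin-K Ras B fragment substrate at 0.1 mM final. Value is % inhibition of farnesylation.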

T1 sequence (Q02293 whole entry, one chain of several): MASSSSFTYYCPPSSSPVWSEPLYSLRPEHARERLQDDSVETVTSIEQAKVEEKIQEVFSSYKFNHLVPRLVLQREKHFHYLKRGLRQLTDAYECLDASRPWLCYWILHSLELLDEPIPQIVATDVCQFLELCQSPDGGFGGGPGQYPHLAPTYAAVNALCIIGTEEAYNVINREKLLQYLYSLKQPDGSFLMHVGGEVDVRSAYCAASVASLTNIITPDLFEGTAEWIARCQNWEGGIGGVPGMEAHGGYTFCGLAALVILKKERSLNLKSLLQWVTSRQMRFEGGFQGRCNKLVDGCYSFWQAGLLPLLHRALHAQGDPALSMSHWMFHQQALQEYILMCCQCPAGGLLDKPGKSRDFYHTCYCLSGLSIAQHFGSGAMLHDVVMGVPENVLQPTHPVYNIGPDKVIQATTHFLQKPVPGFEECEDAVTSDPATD

| Compound | % inhibition at 1 × 10^-6 M (Table 2, 1 × 10^-6 M) | also measured |
| --- | --- | --- |
| CSCC[C@H](NC(=O)c1ccc(OCCCOc2ccccc2)cc1-c1ccccc1C)C(=O)O [Example 566, N-[4-(3-phenoxy)propoxy-2-(2-methylphenyl)benzoyl]methionine] | – | inhibition at 1 µM (Table 2, 1 × 10^-6 M): 98% |
| CSCC[C@H](NC(=O)c1ccc(CN(CCC2CCCCC2)S(C)(=O)=O)cc1-c1ccccc1C)C(=O)O [Example 611] | – | % inhibition at 1 × 10^-7 M (Table 3, 1 × 10^-7 M): 95% |
| CSCC[C@H](NC(=O)c1ccc(CN(C(C)=O)C(CC2CCCCC2)CC2CCCCC2)cc1-c1ccccc1C)C(=O)O [Example 909] | – | % inhibition at 1 × 10^-8 M (Table 4, 1 × 10^-8 M): 79% |
| CSCC[C@H](NC(=O)c1ccc(CS[C@H](CO)Cc2ccccc2)cc1-c1ccccc1)C(=O)O [Example 545, N-[4-(3-phenylpropan-1-ol-2-ylthiomethyl)-2-phenylbenzoyl]methionine, sodium salt] | – | inhibition at 1 µM (Table 2, 1 × 10^-6 M): 88% |
| CCOC(=O)N1CCC(NCc2ccc(C(=O)N[C@@H](CCSC)C(=O)[O-])c(-c3ccccc3C)c2)CC1.[Li+] [Example 806] | 72% | – |
| CCSCC(CC1CCCCC1)NCc1cc(-c2ccccc2C)c(C(=O)N[C@@H](CCSC)C(=O)O)cc1F (stereo partly drawn) [Example 1134] | – | % inhibition at 0.01 μM (**) (Table 6, ** footnote 0.01 μM (title: 0.01 mM)): 95% |
| CSCC[C@H](NC(=O)c1ccc(CNCc2ccco2)cc1-c1ccccc1)C(=O)[O-].[Li+] [Example 302] | 31% | – |
| CSCC[C@H](NC(=O)c1ccc(CN[C@@H](/C=C\CC(C)C)CC2CCCCC2)cc1-c1ccccc1)C(=O)O [Example 665] | 55% | – |
| CSCC[C@H](NC(=O)c1ccc(CSCc2ccccc2C)cc1-c1ccccc1C)C(=O)O [Example 557, N-[4-(2-methylbenzyl)thiomethyl-2-(2-methylphenyl)benzoyl]methionine, lithium salt] | – | inhibition at 1 µM: 93% |

The next lines start with results.

| % inhibition at 1 × 10^-6 M (Table 2, 1 × 10^-6 M) | Compound | also measured |
| --- | --- | --- |
| 65% | CSCC[C@H](NC(=O)c1ccc(CN(C(CC2CCCCC2)CC2CCCCC2)S(=O)(=O)c2ccccc2)cc1-c1ccccc1C)C(=O)O [Example 911] | – |
| 87% | CSCC[C@H](NC(=O)c1ccc(C=CCCCc2ccccc2)cc1-c1ccccc1C)C(=O)O [Example 480] | – |
| 92% | CSCC[C@H](NC(=O)c1ccc(CN2CCC(OCc3ccccc3)C2)cc1-c1ccccc1C)C(=O)O (stereo partly drawn) [Example 988] | – |
